Assay results taken from patent EP3959993B1, “METHOD FOR SOLVENT FREE PRODUCTION OF AROMA CONCENTRATES” (Symrise AG, priority 2020, dated 2022).

Assays:
[1] = Influence of the amount of NaCl on the distribution between oil phase and water phase (Example 5); assay type: physicochemical
[2] = Second oil phase obtained by adding NaCl to the water phase (Example 4); assay type: physicochemical; conditions: after separating oil phases I and II
Description: Cross linked polystyrene was used as adsorbent material. The volume flux for loading the adsorbent was 300 ml/min.
The adsorbent was heated to 150 °C, the temperature of the applied water steam was 160 °C.
The water steam flux was 10 g/min and was applied for 100 min.
The oil and water phases were separated.
A second oil phase was separated and was collected.

O=Cc1ccccc1 [benzaldehyde]
Distribution in [%] between oil phase and water phase after condensation: Oil phase ([1]; NaCl 0%): 27% | Distribution in [%] between oil phase and water phase after condensation: Water phase ([1]; NaCl 0%): 73% | Distribution in [%] between oil phase and water phase after condensation: Oil phase ([1]; NaCl 27.8 %): 57.5% | Distribution in [%] between oil phase and water phase after condensation: Water phase ([1]; NaCl 27.8 %): 42.5% | Distribution in [%] between oil phase and water phase after condensation: Oil phase ([1]; NaCl 41.67%): 64.7% | Distribution in [%] between oil phase and water phase after condensation: Water phase ([1]; NaCl 41.67%): 35.3% | Distribution in [%] between oil phase and water phase after condensation: Oil phase ([1]; NaCl 55.56 %): 70.4% | Distribution in [%] between oil phase and water phase after condensation: Water phase ([1]; NaCl 55.56 %): 29.6% | Distribution in [%] between oil phase and water phase after condensation: Oil phase ([1]; NaCl 69.44 %): 76.7% | Distribution in [%] between oil phase and water phase after condensation: Water phase ([1]; NaCl 69.44 %): 23.3% | Distribution in [%] between oil phase and water phase after condensation: Oil phase ([1]; NaCl 83.33 %): 80.8% | Distribution in [%] between oil phase and water phase after condensation: Water phase ([1]; NaCl 83.33 %): 19.2% | Loss in the water phase [2]: 19,2%

CCCCOC(C)=O [butyl acetate]
Distribution in [%] between oil phase and water phase after condensation: Oil phase ([1]; NaCl 0%): 53.5% | Distribution in [%] between oil phase and water phase after condensation: Water phase ([1]; NaCl 0%): 46.5% | Distribution in [%] between oil phase and water phase after condensation: Oil phase ([1]; NaCl 27.8 %): 85.6% | Distribution in [%] between oil phase and water phase after condensation: Water phase ([1]; NaCl 27.8 %): 14.4% | Distribution in [%] between oil phase and water phase after condensation: Oil phase ([1]; NaCl 41.67%): 92.5% | Distribution in [%] between oil phase and water phase after condensation: Water phase ([1]; NaCl 41.67%): 7.5% | Distribution in [%] between oil phase and water phase after condensation: Oil phase ([1]; NaCl 55.56 %): 95% | Distribution in [%] between oil phase and water phase after condensation: Water phase ([1]; NaCl 55.56 %): 5% | Distribution in [%] between oil phase and water phase after condensation: Oil phase ([1]; NaCl 69.44 %): 97.5% | Distribution in [%] between oil phase and water phase after condensation: Water phase ([1]; NaCl 69.44 %): 2.5% | Distribution in [%] between oil phase and water phase after condensation: Oil phase ([1]; NaCl 83.33 %): 98.6% | Distribution in [%] between oil phase and water phase after condensation: Water phase ([1]; NaCl 83.33 %): 1.4% | Loss in the water phase [2]: 1,4%

CCCCCC(=O)O [caproic acid]
Distribution in [%] between oil phase and water phase after condensation: Oil phase ([1]; NaCl 0%): 43.5% | Distribution in [%] between oil phase and water phase after condensation: Water phase ([1]; NaCl 0%): 56.5% | Distribution in [%] between oil phase and water phase after condensation: Oil phase ([1]; NaCl 27.8 %): 84.9% | Distribution in [%] between oil phase and water phase after condensation: Water phase ([1]; NaCl 27.8 %): 15.1% | Distribution in [%] between oil phase and water phase after condensation: Oil phase ([1]; NaCl 41.67%): 91.5% | Distribution in [%] between oil phase and water phase after condensation: Water phase ([1]; NaCl 41.67%): 8.5% | Distribution in [%] between oil phase and water phase after condensation: Oil phase ([1]; NaCl 55.56 %): 94.9% | Distribution in [%] between oil phase and water phase after condensation: Water phase ([1]; NaCl 55.56 %): 5.1% | Distribution in [%] between oil phase and water phase after condensation: Oil phase ([1]; NaCl 69.44 %): 97% | Distribution in [%] between oil phase and water phase after condensation: Water phase ([1]; NaCl 69.44 %): 3% | Distribution in [%] between oil phase and water phase after condensation: Oil phase ([1]; NaCl 83.33 %): 97.9% | Distribution in [%] between oil phase and water phase after condensation: Water phase ([1]; NaCl 83.33 %): 2.1% | Loss in the water phase [2]: 2,1%

CC/C=C\CCO [cis-3-hexenol]
Distribution in [%] between oil phase and water phase after condensation: Oil phase ([1]; NaCl 0%): 30.6% | Distribution in [%] between oil phase and water phase after condensation: Water phase ([1]; NaCl 0%): 69.4% | Distribution in [%] between oil phase and water phase after condensation: Oil phase ([1]; NaCl 27.8 %): 62.8% | Distribution in [%] between oil phase and water phase after condensation: Water phase ([1]; NaCl 27.8 %): 37.2% | Distribution in [%] between oil phase and water phase after condensation: Oil phase ([1]; NaCl 41.67%): 73.3% | Distribution in [%] between oil phase and water phase after condensation: Water phase ([1]; NaCl 41.67%): 26.7% | Distribution in [%] between oil phase and water phase after condensation: Oil phase ([1]; NaCl 55.56 %): 80.5% | Distribution in [%] between oil phase and water phase after condensation: Water phase ([1]; NaCl 55.56 %): 19.5% | Distribution in [%] between oil phase and water phase after condensation: Oil phase ([1]; NaCl 69.44 %): 85.6% | Distribution in [%] between oil phase and water phase after condensation: Water phase ([1]; NaCl 69.44 %): 14.4% | Distribution in [%] between oil phase and water phase after condensation: Oil phase ([1]; NaCl 83.33 %): 89.2% | Distribution in [%] between oil phase and water phase after condensation: Water phase ([1]; NaCl 83.33 %): 10.8% | Loss in the water phase [2]: 10,8%

CC/C=C\CCOC(C)=O [cis-3-hexenyl acetate]
Distribution in [%] between oil phase and water phase after condensation: Oil phase ([1]; NaCl 0%): 100% | Distribution in [%] between oil phase and water phase after condensation: Water phase ([1]; NaCl 0%): 0% | Distribution in [%] between oil phase and water phase after condensation: Oil phase ([1]; NaCl 27.8 %): 100% | Distribution in [%] between oil phase and water phase after condensation: Water phase ([1]; NaCl 27.8 %): 0% | Distribution in [%] between oil phase and water phase after condensation: Oil phase ([1]; NaCl 41.67%): 100% | Distribution in [%] between oil phase and water phase after condensation: Water phase ([1]; NaCl 41.67%): 0% | Distribution in [%] between oil phase and water phase after condensation: Oil phase ([1]; NaCl 55.56 %): 100% | Distribution in [%] between oil phase and water phase after condensation: Water phase ([1]; NaCl 55.56 %): 0% | Distribution in [%] between oil phase and water phase after condensation: Oil phase ([1]; NaCl 69.44 %): 100% | Distribution in [%] between oil phase and water phase after condensation: Water phase ([1]; NaCl 69.44 %): 0% | Distribution in [%] between oil phase and water phase after condensation: Oil phase ([1]; NaCl 83.33 %): 100% | Distribution in [%] between oil phase and water phase after condensation: Water phase ([1]; NaCl 83.33 %): 0% | Loss in the water phase [2]: 0,0%

CCOC(=O)CC [ethyl propionate]
Distribution in [%] between oil phase and water phase after condensation: Oil phase ([1]; NaCl 0%): 0% | Distribution in [%] between oil phase and water phase after condensation: Water phase ([1]; NaCl 0%): 100% | Distribution in [%] between oil phase and water phase after condensation: Oil phase ([1]; NaCl 27.8 %): 0% | Distribution in [%] between oil phase and water phase after condensation: Water phase ([1]; NaCl 27.8 %): 100% | Distribution in [%] between oil phase and water phase after condensation: Oil phase ([1]; NaCl 41.67%): 0% | Distribution in [%] between oil phase and water phase after condensation: Water phase ([1]; NaCl 41.67%): 100% | Distribution in [%] between oil phase and water phase after condensation: Oil phase ([1]; NaCl 55.56 %): 0% | Distribution in [%] between oil phase and water phase after condensation: Water phase ([1]; NaCl 55.56 %): 100% | Distribution in [%] between oil phase and water phase after condensation: Oil phase ([1]; NaCl 69.44 %): 0% | Distribution in [%] between oil phase and water phase after condensation: Water phase ([1]; NaCl 69.44 %): 100% | Distribution in [%] between oil phase and water phase after condensation: Oil phase ([1]; NaCl 83.33 %): 0% | Distribution in [%] between oil phase and water phase after condensation: Water phase ([1]; NaCl 83.33 %): 100%
